Results reported in PubChem BioAssay (NCI).
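A five-concentration, 48-hour dose response in 96-well plates underlies each endpoint, interpolated linearly between surrounding concentrations. Definition used: TGI = concentration required for complete inhibition of growth.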

Legend:
Assay in all cases: DTP human tumour cell line panel, 48 h
[1] = system: 786-0 renal
[2] = system: EKVX NSCLC
[3] = system: SF-268 CNS
[4] = system: RXF 393 renal
[5] = system: HOP-92 NSCLC
[6] = system: SF-295 CNS
[7] = system: COLO 205 colon
[8] = system: NCI/ADR-RES ovarian
[9] = system: CCRF-CEM leukemia
[10] = system: UACC-257 melanoma
[11] = system: U251 CNS
[12] = system: BT-549 breast
[13] = system: UO-31 renal
[14] = system: OVCAR-5 ovarian
[15] = system: OVCAR-4 ovarian
[16] = system: HT29 colon
[17] = system: MOLT-4 leukemia
[18] = system: HL-60(TB) leukemia
[19] = system: IGROV1 ovarian
[20] = system: DU-145 prostate
[21] = system: MDA-N
[22] = system: MALME-3M melanoma
[23] = system: NCI-H23 lung
[24] = system: SK-MEL-28 melanoma
[25] = system: UACC-62 melanoma
[26] = system: PC-3 prostate
[27] = system: HCT-15 colon
[28] = system: TK-10 renal
[29] = system: HOP-62 NSCLC
[30] = system: HS 578T breast
[31] = system: T-47D breast
[32] = system: NCI-H522 lung
[33] = system: K-562 leukemia
[34] = system: SF-539 CNS
[35] = system: MDA-MB-435
[36] = system: OVCAR-8 ovarian
[37] = system: OVCAR-3 ovarian
[38] = system: M14 melanoma
[39] = system: HCT-116 colon
[40] = system: MDA-MB-231 breast
[41] = system: SN12C renal
[42] = system: NCI-H460 lung
[43] = system: LOX IMVI melanoma
[44] = system: SNB-19 CNS
[45] = system: HCC-2998 colon
[46] = system: ACHN renal
[47] = system: RPMI-8226 leukemia
[48] = system: SK-MEL-5 melanoma
[49] = system: MCF7 breast
[50] = system: SW-620 colon
[51] = system: KM12 colon
[52] = system: NCI-H226 lung
[53] = system: A498 renal
[54] = system: SK-MEL-2 melanoma
[55] = system: CAKI-1 renal
[56] = system: SK-OV-3 ovarian
[57] = system: SNB-75 CNS
[58] = system: A549 NSCLC
[59] = system: SR leukemia

`C/C(=N/c1[nH]c(=O)cc2c1C(=O)CC2)N(C)C` gave a TGI [1] of over 200 µM, a TGI [2] of over 200 µM and a TGI [3] of over 200 µM. The TGI [4] was over 200 µM, the TGI [5] was over 200 µM and the TGI [6] was over 200 µM. The TGI [7] was over 200 µM, the TGI [8] was over 200 µM and the TGI [9] was over 200 µM. It also gave a TGI [10] of over 200 µM, a TGI [11] of over 200 µM and a TGI [12] of over 200 µM. It also gave a TGI [13] of over 200 µM, a TGI [14] of over 200 µM and a TGI [15] of over 200 µM. The TGI [16] was over 200 µM, the TGI [17] was over 200 µM and the TGI [18] was over 200 µM. It also gave a TGI [19] of over 200 µM, a TGI [20] of over 200 µM and a TGI [21] of over 200 µM. For the same molecule, the TGI [22] was over 200 µM, the TGI [23] was over 200 µM and the TGI [24] was over 200 µM. The TGI [25] was over 200 µM, the TGI [26] was over 200 µM and the TGI [27] was over 200 µM. The TGI [28] was over 200 µM, the TGI [29] was over 200 µM and the TGI [30] was over 200 µM. For the same molecule, the TGI [31] was over 200 µM, the TGI [32] was over 200 µM and the TGI [33] was over 200 µM. The TGI [34] was over 200 µM, the TGI [35] was over 200 µM and the TGI [36] was over 200 µM. The TGI [37] was over 200 µM, the TGI [38] was over 200 µM and the TGI [39] was over 200 µM. For the same molecule, the TGI [40] was over 200 µM, the TGI [41] was over 200 µM and the TGI [42] was over 200 µM. The TGI [43] was over 200 µM, the TGI [44] was over 200 µM and the TGI [45] was over 200 µM. For the same molecule, the TGI [46] was over 200 µM, the TGI [47] was over 200 µM and the TGI [48] was over 200 µM. The TGI [49] was over 200 µM, the TGI [50] was over 200 µM and the TGI [51] was over 200 µM. It also gave a TGI [52] of over 200 µM, a TGI [53] of over 200 µM and a TGI [54] of over 200 µM. For the same molecule, the TGI [55] was over 200 µM, the TGI [56] was over 200 µM and the TGI [57] was over 200 µM. The TGI [58] was over 200 µM.
Molecule `N#Cc1c(-c2cccc(Cl)c2)cc(-c2ccc(Cl)cc2)nc1N` has a TGI [1] of 33.5 µM, a TGI [2] of 45 µM and a TGI [3] of 37.7 µM. The TGI [4] was 32.3 µM, the TGI [5] was 25.3 µM and the TGI [6] was 32.5 µM. It also gave a TGI [7] of 28.6 µM, a TGI [8] of 63.5 µM and a TGI [9] of 48.4 µM. For the same molecule, the TGI [10] was 36.1 µM, the TGI [11] was 30.9 µM and the TGI [12] was 36.4 µM. For the same molecule, the TGI [13] was 27.5 µM, the TGI [14] was 42.9 µM and the TGI [15] was 33.1 µM. The TGI [16] was 44 µM, the TGI [17] was 58.6 µM and the TGI [18] was 77.2 µM. The TGI [19] was 24.4 µM, the TGI [20] was over 100 µM and the TGI [21] was 42.3 µM. The TGI [22] was 58.4 µM, the TGI [23] was 38.2 µM and the TGI [25] was 32.7 µM. The TGI [26] was 49.2 µM, the TGI [27] was 32.9 µM and the TGI [28] was 52.2 µM. The TGI [59] was 40 µM, the TGI [29] was 36.3 µM and the TGI [30] was 40.5 µM. The TGI [31] was over 100 µM, the TGI [32] was 30.8 µM and the TGI [33] was over 100 µM. The TGI [34] was 34.3 µM, the TGI [35] was 37.6 µM and the TGI [36] was 70.7 µM. For the same molecule, the TGI [37] was 63.9 µM, the TGI [38] was 36.9 µM and the TGI [39] was 34.1 µM. The TGI [40] was 32 µM, the TGI [41] was 34.4 µM and the TGI [42] was 39.2 µM. The TGI [43] was 31.5 µM, the TGI [44] was 25.5 µM and the TGI [46] was 41.6 µM. The TGI [47] was 48 µM, the TGI [48] was 30.1 µM and the TGI [49] was 38.3 µM. It also gave a TGI [50] of 34.2 µM, a TGI [51] of 80.7 µM and a TGI [52] of 34.8 µM. It also gave a TGI [54] of 36.7 µM, a TGI [55] of 86 µM and a TGI [56] of 46.7 µM. The TGI [58] was 36.1 µM.
